Results taken from patent US11844791B2, “Use of antagonists and/or inverse agonists of CB1 receptors for preparing medicaments for treating fatigue post-viral fatigue syndrome” (FUNDACION HOSPITAL NACIONAL DE PARAPÉJICOS, priority 2020, dated 2023).

What was measured:
[1] = tested on: human motor system (motor cortex and spinal motor neurons); test: Transcranial magnetic stimulation: MEP amplitude in first dorsal interosseous muscle before and 24 hours after a single Rimonabant dose; assay type: in vivo; conditions: healthy subjects, 24 hours after single dose Rimonabant 20 mg; MEP at 120% RMT, FDI at rest; baseline 1.1±0.6 mV; paired T test p=0.02
Protocol: The aim of the present experiments was to use transcranial magnetic stimulation to test the effects of a single dose of 20 mg of Rimonabant on the excitability of motor cortex and of spinal motor neurons.
(§1) Neurophysiological examination was performed before and 24 hours after the administration of a single dose of 20 mg of Rimonabant.
Using transcranial magnetic stimulation (TMS), it was evaluated the thresholds for electromyographic responses in the first dorsal interosseous muscle (FDI) at rest and during voluntary contraction.
(§2) Nine healthy volunteers (mean age±S.D. 32.1±5.8 years) participated in all experiments. All the subjects gave their written informed consent.
Magnetic stimulation was performed using a high-power Magstim 200 magnetic stimulator (Magstim Co., Whitland, UK). A figure-of-eight coil with external loop diameters of 9 cm was held over the right motor cortex at the optimum scalp position to elicit motor responses in the contralateral first dorsal interosseous (FDI). The induced current flowed in a postero-anterior direction. Resting motor threshold (RMT) was defined as the minimum stimulus intensity that produced a liminal motor evoked response (about 50 μV in 50% of 10 trials) at rest. The main variables we test is the RMT and MEP amplitude before and 24 hours after the Rimonabant 20 mg. MEP amplitude was obtained at 120% RMT. […]

healthy volunteers = test: Tolerability and adverse effects of a single Rimonabant dose in healthy volunteers; assay type: in vivo, human; conditions: single dose 20 mg
Protocol: as §1, §2
Hitherto, three subjects experienced agitation and anxiety (this effect lasted an average of 6 hours) and one suffered for nausea (for 24 hours).

[2] = as previously described; cited from earlier work

Cc1c(C(=O)NN2CCCCC2)nn(-c2ccc(Cl)cc2Cl)c1-c1ccc(Cl)cc1 [Rimonabant, N-(piperidino-1-yl)-5-(4-chlorophenyl)-1-(2,4-dichlorophenyl)-4-methylpyrazole-3-carboxamide]
MEP amplitude (motor system excitability), mean±S.D. [1]: 2.1±1.2 mV | Average duration of agitation and anxiety (healthy volunteers; healthy volunteers): 6 h | Duration of nausea (healthy volunteers; healthy volunteers): 24 h | Effects on vigilance (healthy volunteers; healthy volunteers): moderate | Subjects who experienced agitation and anxiety (healthy volunteers; of nine healthy volunteers): three | Subjects who suffered nausea (healthy volunteers; of nine healthy volunteers): one | Blood-brain barrier penetration [2]: penetrates the blood-brain barrier
